The nature of data set [1]: AUC in dog at 1 mg/kg, po. On the set-up: dose 1 mg/kg, route oral. The conditions noted are these: plasma. It counts as ADME, organism-based, Canis lupus familiaris.
Data set [2] can be described thus: Apparent oral clearance in rat at 10 mg/kg. It counts as ADME, organism-based. Also on record: dose 10 mg/kg, route oral. To be noted: in vivo.
The nature of data set [3]: Cmax in dog at 1 mg/kg, po. The conditions noted are these: in vivo. The class given is ADME, organism-based, Canis lupus familiaris. Also on record: dose 1 mg/kg, route oral.
Data set [4] is described as follows: Apparent oral clearance in dog at 1 mg/kg. It counts as ADME, organism-based, Canis lupus familiaris. To be noted: in vivo. On the set-up: dose 1 mg/kg, route oral.
Data set [5] concerns Rattus norvegicus. Nature of the data set: Inhibition of ADP-induced platelet aggregation in Sprague-Dawley rat assessed as bleeding time at 2.5 mg/kg, po after 2 hrs (reference value: 9.4 mins). The class given is organism-based. Also on record: dose 2.5 mg/kg, route oral. The conditions noted are these: in vivo.
The nature of data set [6]: (§1) Apparent volume of distribution during terminal phase in rat at 10 mg/kg, po. On the set-up: dose 10 mg/kg, route oral. It counts as ADME, organism-based. To be noted: in vivo, read-out: Vz/F.
The nature of data set [7]: Half life in rat at 10 mg/kg, po. The class given is ADME, organism-based. To be noted: in vivo. Also on record: dose 10 mg/kg, route oral.
The nature of data set [8]: Half life in dog at 1 mg/kg, po. The class given is ADME, organism-based, Canis lupus familiaris. On the set-up: dose 1 mg/kg, route oral. The conditions noted are these: in vivo.
Data set [9] relates to Rattus norvegicus. Nature of the data set: Inhibition of ADP-induced platelet aggregation in Sprague-Dawley rat assessed as blood loss volume at 2.5 mg/kg, po administered 2 hrs prior to transection measured for 30 mins (reference value: < 0.5 ml). On the set-up: dose 2.5 mg/kg, route oral. The conditions noted are these: in vivo, 0.5 h. It counts as organism-based.
A short description of data set [10]: AUC in rat at 10 mg/kg, po. To be noted: plasma. The class given is ADME, organism-based. Also on record: dose 10 mg/kg, route oral.
The nature of data set [11]: Cmax in rat at 10 mg/kg, po. To be noted: in vivo. Also on record: dose 10 mg/kg, route oral. It counts as ADME, organism-based.
Data set [12] deals with Rattus norvegicus. Nature of the data set: Inhibition of ADP-induced platelet aggregation in Sprague-Dawley rat plasma at 2.5 mg/kg, po treated 2.5 hrs prior to ADP-challenge measured after 2 mins by light transmission-based assay. The class given is functional.
The nature of data set [13]: Apparent volume of distribution during terminal phase in dog at 1 mg/kg, po. The conditions noted are these: in vivo, read-out: Vz/F. On the set-up: dose 1 mg/kg, route oral. The class given is ADME, organism-based, Canis lupus familiaris.
The subject of data set [14] is Rattus norvegicus. The data set is described as §1. It counts as ADME, organism-based. The conditions noted are these: in vivo. On the set-up: dose 10 mg/kg, route oral.
The target of data set [15] is P2Y purinoceptor 12 (Rattus norvegicus) (UniProt Q9EPX4). The data set is described as follows: Antagonist activity at P2Y12 receptor in rat platelet-rich plasma assessed as inhibition of ADP-induced platelet aggregation at 3 uM incubated for 5 mins prior to ADP-challenge by light transmission-based assay.
Sequence of P2Y purinoceptor 12 (Rattus norvegicus) (Q9EPX4 whole entry): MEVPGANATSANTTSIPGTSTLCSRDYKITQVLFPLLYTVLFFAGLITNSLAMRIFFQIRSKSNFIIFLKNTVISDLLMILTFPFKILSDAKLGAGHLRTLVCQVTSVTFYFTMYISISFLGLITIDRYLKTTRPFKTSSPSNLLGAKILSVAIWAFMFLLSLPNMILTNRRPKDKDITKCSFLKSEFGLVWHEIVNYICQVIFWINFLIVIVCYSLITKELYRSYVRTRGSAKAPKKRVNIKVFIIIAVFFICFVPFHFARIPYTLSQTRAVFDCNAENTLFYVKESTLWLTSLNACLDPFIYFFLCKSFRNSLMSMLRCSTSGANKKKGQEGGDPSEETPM
For data set [16], the system named is Rattus norvegicus. The data set is described as follows: Inhibition of ADP-induced platelet aggregation in Sprague-Dawley rat assessed as blood loss volume at 10 mg/kg, po administered 2 hrs prior to transection measured for 30 mins (reference value: < 0.5 ml). The class given is organism-based. On the set-up: dose 10 mg/kg, route oral. To be noted: in vivo, 0.5 h.

Data set [17] concerns Rattus norvegicus. Nature of the data set: Inhibition of ADP-induced platelet aggregation in Sprague-Dawley rat assessed as bleeding time at 5 mg/kg, po after 2 hrs (reference value: 9.4 mins). The class given is organism-based. Also on record: dose 5 mg/kg, route oral. The conditions noted are these: in vivo.
For data set [18], the system named is Rattus norvegicus. The data set is described as follows: Inhibition of ADP-induced platelet aggregation in Sprague-Dawley rat assessed as bleeding time at 0.625 mg/kg, po after 2 hrs (reference value: 9.4 mins). It counts as organism-based. On the set-up: dose 0.625 mg/kg, route oral. To be noted: in vivo.
The subject of data set [19] is Rattus norvegicus. Nature of the data set: Inhibition of ADP-induced platelet aggregation in Sprague-Dawley rat assessed as blood loss volume at 0.625 mg/kg, po administered 2 hrs prior to transection measured for 30 mins (reference value: < 0.5 ml). It counts as organism-based. On the set-up: dose 0.625 mg/kg, route oral. To be noted: in vivo, 0.5 h.
The subject of data set [20] is Rattus norvegicus. The data set is described as follows: Inhibition of ADP-induced platelet aggregation in Sprague-Dawley rat assessed as blood loss volume at 5 mg/kg, po administered 2 hrs prior to transection measured for 30 mins (reference value: < 0.5 ml). It counts as organism-based. Also on record: dose 5 mg/kg, route oral. The conditions noted are these: in vivo, 0.5 h.

Data set [21] addresses Cytochrome P450 2C9 (Homo sapiens, UniProt P11712). The data set is described as follows: Inhibition of CYP2C9 (unknown origin). It counts as ADME.
Data set [22] concerns Rattus norvegicus. Nature of the data set: Inhibition of ADP-induced platelet aggregation in Sprague-Dawley rat assessed as bleeding time at 10 mg/kg, po after 2 hrs (reference value: 9.4 mins). The class given is organism-based. On the set-up: dose 10 mg/kg, route oral. To be noted: in vivo.
In data set [23] the test system is Rattus norvegicus. The data set is described as follows: Inhibition of ADP-induced platelet aggregation in Sprague-Dawley rat assessed as bleeding time at 1.25 mg/kg, po after 2 hrs (reference value: 9.4 mins). It counts as organism-based. Also on record: dose 1.25 mg/kg, route oral. The conditions noted are these: in vivo.
Data set [24] deals with Rattus norvegicus. The data set is described as follows: Inhibition of ADP-induced platelet aggregation in Sprague-Dawley rat assessed as blood loss volume at 1.25 mg/kg, po administered 2 hrs prior to transection measured for 30 mins (reference value: < 0.5 ml). The class given is organism-based. On the set-up: dose 1.25 mg/kg, route oral. The conditions noted are these: in vivo, 0.5 h.

Data set [25] can be described thus: Inhibition of CYP450 (unknown origin) at 30 uM. The class given is ADME. To be noted: human.
Data set [26] addresses Voltage-gated inwardly rectifying potassium channel KCNH2 (Homo sapiens, UniProt Q12809). The data set is described as follows: Inhibition of human ERG channel at 10 uM by patch-clamp technique. (The patch-clamp technique gives a direct electrical read-out from membranes.)

pIC50: −log10 of the molar value.

Sequence of Cytochrome P450 2C9 (P11712 whole entry): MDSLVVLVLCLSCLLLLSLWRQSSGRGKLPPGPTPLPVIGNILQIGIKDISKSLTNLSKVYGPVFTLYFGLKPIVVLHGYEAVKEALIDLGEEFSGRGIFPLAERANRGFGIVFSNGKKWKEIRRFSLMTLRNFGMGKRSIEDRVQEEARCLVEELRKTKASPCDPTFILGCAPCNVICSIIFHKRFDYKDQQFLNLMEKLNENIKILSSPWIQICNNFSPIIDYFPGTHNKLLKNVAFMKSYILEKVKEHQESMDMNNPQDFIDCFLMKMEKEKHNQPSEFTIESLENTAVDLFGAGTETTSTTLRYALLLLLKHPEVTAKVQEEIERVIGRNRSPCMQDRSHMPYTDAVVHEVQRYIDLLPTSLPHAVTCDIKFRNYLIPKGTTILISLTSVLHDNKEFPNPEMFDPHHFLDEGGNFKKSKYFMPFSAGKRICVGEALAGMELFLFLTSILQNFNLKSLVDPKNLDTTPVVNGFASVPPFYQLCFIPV
Sequence of Voltage-gated inwardly rectifying potassium channel KCNH2 (Q12809 whole entry): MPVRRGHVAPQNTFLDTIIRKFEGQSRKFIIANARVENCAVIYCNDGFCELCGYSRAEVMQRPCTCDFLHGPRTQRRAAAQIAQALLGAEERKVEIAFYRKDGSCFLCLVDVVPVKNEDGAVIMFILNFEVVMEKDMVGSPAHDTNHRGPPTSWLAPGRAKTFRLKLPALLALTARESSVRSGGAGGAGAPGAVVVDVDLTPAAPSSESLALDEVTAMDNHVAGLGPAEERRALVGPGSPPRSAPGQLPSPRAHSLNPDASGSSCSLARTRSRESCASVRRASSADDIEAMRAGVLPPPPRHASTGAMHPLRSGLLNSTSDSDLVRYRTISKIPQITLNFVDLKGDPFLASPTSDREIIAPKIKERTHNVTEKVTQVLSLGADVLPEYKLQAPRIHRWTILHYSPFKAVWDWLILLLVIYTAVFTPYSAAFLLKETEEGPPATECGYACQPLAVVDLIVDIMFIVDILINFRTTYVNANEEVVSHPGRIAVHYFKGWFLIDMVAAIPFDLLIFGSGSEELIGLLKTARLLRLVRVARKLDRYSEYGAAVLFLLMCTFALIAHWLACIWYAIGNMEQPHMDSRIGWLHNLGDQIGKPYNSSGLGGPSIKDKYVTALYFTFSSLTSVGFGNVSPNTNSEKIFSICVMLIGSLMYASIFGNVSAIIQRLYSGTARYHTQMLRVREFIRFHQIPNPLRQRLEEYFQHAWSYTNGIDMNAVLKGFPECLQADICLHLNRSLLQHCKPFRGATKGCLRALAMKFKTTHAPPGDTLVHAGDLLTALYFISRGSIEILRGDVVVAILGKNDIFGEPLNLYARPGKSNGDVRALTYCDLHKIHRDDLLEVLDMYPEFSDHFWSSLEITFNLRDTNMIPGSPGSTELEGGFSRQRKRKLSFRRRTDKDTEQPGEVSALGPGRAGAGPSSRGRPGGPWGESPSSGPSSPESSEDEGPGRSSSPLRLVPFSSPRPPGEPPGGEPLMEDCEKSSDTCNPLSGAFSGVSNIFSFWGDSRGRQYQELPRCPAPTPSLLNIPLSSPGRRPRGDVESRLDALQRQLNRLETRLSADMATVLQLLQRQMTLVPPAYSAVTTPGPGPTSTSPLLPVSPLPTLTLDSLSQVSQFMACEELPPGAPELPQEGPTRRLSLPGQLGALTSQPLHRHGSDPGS

Broadly, the AUC is the area under the concentration-time curve, a measure of exposure. A higher AUC goes with more exposure. Usually CL/F stands for the apparent clearance, not corrected for the fraction that reaches the circulation. By Cmax is commonly meant the maximum level reached in the sampled fluid or tissue. In general, half-life refers to the time needed for the level to fall by half in the phase considered. As a reminder, the inhibition in vivo is the drop in the measured response relative to a control, in per cent. A high value points to strong suppression. As for `CCCSc1nc(N[C@@H]2C[C@H]2c2ccc(F)c(F)c2)c2nnn([C@@H]3C[C@H](OCCO)[C@@H](O)[C@H]3O)c2n1` [TICAGRELOR], the AUC in data set [1] turned out to be 504 ng·h/mL; in data set [10] it was 1400 ng·h/mL. Moreover, the CL/F was 133 mL/min/kg in [2] and 32.8 mL/min/kg in data set [4]. In addition, the figures for the Cmax in data set [3] and in [11] were 125 ng/mL and 267 ng/mL, respectively. The Time in [5] is on record as > 30 min. The Vd/F was 24.2 L/kg in data set [6] and 5.76 L/kg in data set [13]. Further, the values for the half-life in data set [7] and in data set [8] were 2.23 h and 2.03 h, respectively. The Activity in [9] came out at 0.5 mL. In [12], this compound gave an inhibition in vivo at 2.5 mg/kg of 59%.

`CCCSc1nc(N[C@@H]2C[C@H]2c2ccc(F)c(F)c2)c2nnn([C@H]3[C@H](O)[C@H](O)[C@@H](OCCO)[C@H]3F)c2n1`: the AUC was 218 ng·h/mL in data set [1] and 512 ng·h/mL in [10]. The results for the apparent clearance (CL/F) in data set [2] and in data set [4] were 350 mL/min/kg and 72.3 mL/min/kg, respectively. Besides, the Cmax in data set [3] is 55.6 ng/mL; in [11] it was 127 ng/mL. Further, the Vd/F in [6] was found to be 82.4 L/kg; in [13], 15.4 L/kg. In addition, the half-life in [7] was 2.83 h; in data set [8], 2.46 h.

Take `CCCSc1nc(N[C@@H]2C[C@H]2c2ccc(F)c(F)c2)c2nnn([C@@H]3C[C@H](OCC(O)CO)[C@@H](O)[C@H]3O)c2n1` (mixture of isomers): the Vz/F in data set [14] worked out at 1513 L/kg. Further, in data set [7], the half-life is 1.72 h. In data set [10], the area under the curve (AUC) worked out at 13.8 ng·h/mL. The compound also had a Cmax in data set [11] of 3.89 ng/mL.

Broadly, the inhibition is the drop in the measured response relative to a control, in per cent. With `CCCSc1nc(N[C@@H]2C[C@H]2c2ccc(F)c(F)c2)c2nnn([C@@H]3C[C@H](OCCOCCO)[C@@H](O)[C@H]3O)c2n1`, in [15], the inhibition is 0%.

For the compound `CCCSc1nc(N[C@@H]2C[C@H]2c2ccc(F)c(F)c2)c2nnn([C@@H]3C[C@H](F)[C@@H](O)[C@H]3O)c2n1`, the AUC is 24.3 ng·h/mL in data set [1] and 1270 ng·h/mL in data set [10]. The apparent clearance (CL/F) was 137 mL/min/kg in [2] and 865 mL/min/kg in data set [4]. Besides, the Cmax in data set [3] is 8.29 ng/mL; in data set [11], 195 ng/mL. Further, the results for the Vd/F in data set [6] and in [13] were 27.1 L/kg and 88.4 L/kg, respectively. Moreover, the half-life in data set [7] is 2.33 h; in [8], 1.21 h.

For `CCCSc1nc(NC2Cc3ccccc3C2)c2nnn([C@@H]3C[C@H](OCCO)[C@@H](O)[C@H]3O)c2n1`, the inhibition in [15] amounted to 0%.

For orientation: pIC50 means −log10 of the IC50, conventionally taken in molar units. For the compound `CCCSc1nc(N[C@@H]2C[C@H]2c2ccc(F)c(F)c2)c2nnn([C@H]3[C@H](O)[C@H](O)[C@@H](O)[C@H]3F)c2n1`, the area under the curve (AUC) was 469 ng·h/mL in data set [1] and 1200 ng·h/mL in [10]. Moreover, the Activity was 1.75 mL in [16]; < 0.5 mL in data set [19]; 0.9 mL in data set [20]; < 0.5 mL in data set [9]; < 0.5 mL in [24]. Further, the apparent clearance (CL/F) in data set [2] is 139 mL/min/kg; in data set [4], 36.7 mL/min/kg. Also, the Time in [17] is > 30 min; in data set [18], 8.59 min; in data set [5], 9.76 min; in data set [22], > 30 min; in data set [23], 10.67 min. Further, the Cmax in data set [3] is 110 ng/mL; in [11], 303 ng/mL. Further, the Vd/F was 43.4 L/kg in [6] and 6.26 L/kg in data set [13]. Moreover, the pIC50 in [21] was 5.05. Moreover, the half-life in [7] was 3.56 h; in [8], 1.94 h. In addition, in [12], the inhibition in vivo at 2.5 mg/kg was 95%. Besides, the “inhibition (INH)” value in data set [25] and in [26] was “Not Active” throughout.

Take `CCCSc1nc(N[C@@H]2C[C@H]2c2ccc(Cl)s2)c2nnn([C@@H]3C[C@H](OCCO)[C@@H](O)[C@H]3O)c2n1`: the apparent clearance CL/F in [2] was 712 mL/min/kg. For the same compound, the Vd/F in data set [6] was determined as 206 L/kg. The half-life in [7] was 3.35 h. For the same compound, the area under the curve (AUC) in [10] was found to be 64.4 ng·h/mL. Moreover, the Cmax in data set [11] came out at 28.7 ng/mL.

With `CCCSc1nc(N[C@@H]2C[C@H]2c2ccc(F)c(F)c2)c2nnn(C3[C@H](O)[C@H](O)[C@@H](O)[C@H]3O)c2n1` (some centres undefined), in [2], the CL/F was 2200 mL/min/kg. Besides, the Vd/F in [6] amounted to 217 L/kg. For the same compound, in data set [7], the half-life is 1.7 h. The compound further displayed an AUC in data set [10] of 146 ng·h/mL. The same compound came in with a Cmax in data set [11] of 55.4 ng/mL.

Turning to `CCCSc1nc(N[C@@H]2C[C@H]2c2ccc(F)c(F)c2)c2nnn([C@H]3[C@H](O)[C@H](O)[C@]4(CO)C[C@H]34)c2n1`, in [15], the inhibition was 0%.

These data come from ChEMBL document CHEMBL3098001, “Synthesis and biological evaluation of cyclopentyl-triazolol-pyrimidine (CPTP) based P2Y12 antagonists” (Bioorg Med Chem Lett, 2014).
